Results on 5 molecules are retold here after publication PMC3037030 (Biochimica et biophysica acta, 2010).

Where two headings read alike, the source gives them in different places.

Assay [1] concerns the target T1, Acsl4 (Rattus norvegicus, UniProt O35547). In words: radiometric acyl-CoA synthetase assay. The class given is biochemical. Conditions: read-out: Substrate / AA.
For assay [2], the target named is T1, Acsl4. In words: radiometric acyl-CoA synthetase assay. The class given is biochemical.
The target in assay [3] is T1, Acsl4. Format: biochemical.
Assay [4] addresses T1, Acsl4. In words: radiometric acyl-CoA synthetase assay, […] inhibition at […]. As to conditions: read-out: % inhibition at 10 μM. Format: cell-based.
For assay [5], the target named is Acsl3 (Rattus norvegicus, UniProt Q63151). The assay is described as above. As to conditions: read-out: % inhibition at 10 μM. The class given is cell-based.
Acsl3, sequence (Q63151 whole entry): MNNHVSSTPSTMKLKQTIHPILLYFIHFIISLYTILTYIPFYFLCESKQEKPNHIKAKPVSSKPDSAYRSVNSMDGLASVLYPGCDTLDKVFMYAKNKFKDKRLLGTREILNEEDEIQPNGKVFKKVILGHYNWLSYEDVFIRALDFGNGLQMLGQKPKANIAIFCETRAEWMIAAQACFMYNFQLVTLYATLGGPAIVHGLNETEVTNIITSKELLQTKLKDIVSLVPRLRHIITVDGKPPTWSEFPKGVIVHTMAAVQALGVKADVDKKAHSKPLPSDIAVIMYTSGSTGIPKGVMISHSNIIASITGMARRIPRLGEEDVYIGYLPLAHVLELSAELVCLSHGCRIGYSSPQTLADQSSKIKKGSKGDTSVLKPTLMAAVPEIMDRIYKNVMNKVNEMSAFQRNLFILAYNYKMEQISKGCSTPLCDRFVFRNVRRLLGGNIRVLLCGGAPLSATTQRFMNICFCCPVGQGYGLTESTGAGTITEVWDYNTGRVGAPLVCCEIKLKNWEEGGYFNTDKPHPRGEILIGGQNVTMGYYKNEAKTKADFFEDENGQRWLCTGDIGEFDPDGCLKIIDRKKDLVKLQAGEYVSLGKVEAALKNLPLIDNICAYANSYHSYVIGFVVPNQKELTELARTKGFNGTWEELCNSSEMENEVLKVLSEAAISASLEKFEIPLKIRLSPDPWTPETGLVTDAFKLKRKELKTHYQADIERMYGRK

T1 sequence (O35547 whole entry): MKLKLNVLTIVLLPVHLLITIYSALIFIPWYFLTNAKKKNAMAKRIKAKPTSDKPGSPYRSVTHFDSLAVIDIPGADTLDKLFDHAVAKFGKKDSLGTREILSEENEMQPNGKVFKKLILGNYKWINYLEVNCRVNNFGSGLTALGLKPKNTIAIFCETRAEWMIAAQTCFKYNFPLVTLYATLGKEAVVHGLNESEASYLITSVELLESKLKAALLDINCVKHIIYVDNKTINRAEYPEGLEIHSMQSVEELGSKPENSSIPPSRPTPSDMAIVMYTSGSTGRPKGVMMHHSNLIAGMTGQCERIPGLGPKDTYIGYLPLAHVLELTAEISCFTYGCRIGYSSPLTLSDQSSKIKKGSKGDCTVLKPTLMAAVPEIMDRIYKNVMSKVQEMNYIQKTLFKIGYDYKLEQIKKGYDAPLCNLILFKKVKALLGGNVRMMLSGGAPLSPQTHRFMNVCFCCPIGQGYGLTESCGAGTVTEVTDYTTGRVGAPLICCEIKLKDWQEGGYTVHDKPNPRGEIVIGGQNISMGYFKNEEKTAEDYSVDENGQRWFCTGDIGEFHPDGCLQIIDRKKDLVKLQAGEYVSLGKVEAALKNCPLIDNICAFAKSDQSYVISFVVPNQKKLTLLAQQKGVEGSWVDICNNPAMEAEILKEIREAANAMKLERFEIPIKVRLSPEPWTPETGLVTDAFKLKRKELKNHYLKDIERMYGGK

Regarding `CCCCC/C=C\C/C=C\C/C=C\C/C=C\CCCC(=O)O` [AA, arachidonic acid], in assay [1], the Km came out at 4.98 ± 1.41 µM. Take `CC/C=C\C/C=C\C/C=C\C/C=C\C/C=C\C/C=C\CCC(=O)O` [DHA, docosahexaenoic acid]: in assay [2] (read-out: Substrate / DHA), the Km worked out at 26.6 ± 3.95 µM. For orientation: Ki means the dissociation constant of the complex between target and ligand, obtained from inhibition or displacement. A high value points to a looser hold on the target. Molecule `CCCC(CCC)C(=O)O` [VPA, valproate] registered a Ki in assay [3] of 24.9 ± 2.61 mM.

With `CCCCCCCCCCCCCCCC(=O)O` [palmitic acid], in assay [2] (read-out: Substrate / Palmitic Acid), the Km came to 16.7 ± 6.25 µM. Usually inhibition stands for the percentage by which the read-out fell short of the control. For the molecule `CCC/C=C/C/C=C/C=C/C=N/NN=O` [triacsin C], the results for the inhibition at 10 µM in assay [4] and in assay [5] were 85% and 90%, respectively.
